According to patent publication US20090047244A1, “MACROCYCLIC SERINE PROTEASE INHIBITORS I” (Idenix Pharmaceuticals, Inc., priority 2007, published 2009):

Legend:
HCV NS3-NS4A protease = target: T1, HCV NS3-NS4A protease (Hepatitis C virus genotype 1a, UniProt P27958); assay: HCV Protease Assay (SensoLyte 620 HCV Protease Assay kit); type: biochemical; conditions: 1.2 nM HCV NS3-NS4A protease, 5% DMSO, 60 min at room temperature
T1 construct: made in house
Method: General procedure: Measurement of the inhibitory effect of compounds on HCV protease activity was performed with the SensoLyte™ 620 HCV Protease Assay kit from AnaSpec, Inc. (San Jose, Calif.) under conditions described by the supplier using 1.2 nM HCV NS3-NS4A protease, which was obtained according to Taremi et al. (Protein Science, 1998, 7, 2143-2149). The compounds were tested at a variety of concentrations in assay buffer containing a final DMSO concentration of 5%. Reactions were allowed to proceed for 60 min at room temperature and fluorescence measurements were recorded with a Tecan Infinity Spectrofluorimeter. The IC50 values were determined from the percent inhibition versus concentration data using a sigmoidal non-linear regression analysis based on four parameters with Tecan Magellan software.

[1] = Cytotoxicity evaluation (Cell Titer 96 AQueous One Solution Cell Proliferation Assay); type: cell-based; conditions: human; GS4.1 cells, cellular viability
Method: For cytotoxicity evaluation, GS4.1 cells were treated with compounds as described above and cellular viability was monitored using the Cell Titer 96 AQueous One Solution Cell Proliferation Assay (Promega). CC50 values were determined from the % cytotoxicity versus concentration data with Tecan Magellan software as described above.

[2] = test system: Huh-7 cells containing HCV Con1 subgenomic replicon (GS4.1 cells); assay: HCV Replicon Assay (NS4A ELISA); type: cell-based; conditions: Hepatitis C virus, 72 hr, NS4A protein expression by ELISA
Method: General procedure: Huh-7 cells containing HCV Con1 subgenomic replicon (GS4.1 cells) were grown in Dulbecco's Modified Eagle Medium (DMEM) supplemented with 10% fetal bovine serum (FBS), 2 mM L-glutamine, 110 mg/L sodium pyruvate, 1X non-essential amino acids, 100 U/mL penicillin-streptomycin, and 0.5 mg/mL G418 (Invitrogen). For dose-response testing, the cells were seeded in 96-well plates at 7.5×10^3 cells/well in a volume of 50 μL, and incubated at 37° C./5% CO2. Three hours after plating, 50 μL of ten 2-fold serial dilutions of compounds (highest concentration, 75 μM) were added, and cell cultures were incubated at 37° C./5% CO2 in the presence of 0.5% DMSO. Alternatively, compounds were tested at a single concentration of 15 μM. In all cases, Huh-7 cells lacking the HCV replicon served as negative control. The cells were incubated in the presence of compounds for 72 hr after which they were monitored for expression of the NS4A protein by enzyme-linked immunosorbent assay (ELISA). For this, the plates were then fixed for 1 min with acetone/methanol (1:1, v/v), washed twice with phosphate-buffered saline (PBS), 0.1% Tween 20, blocked for 1 hr at room temperature with TNE buffer containing 10% FBS and then incubated for 2 hr at 37° C. with the anti-NS4A mouse monoclonal antibody A-236 (ViroGen) diluted in the same buffer. After washing three times with PBS, 0.1% Tween 20, the cells were incubated 1 hr at 37° C. with anti-mouse immunoglobulin G-peroxidase conjugate in TNE, 10% FBS. After washing as described above, the reaction was developed with O-phenylenediamine (Zymed). The reaction was stopped after 30 min with 2 N H2SO4, and absorbance was read at 492 nm using Sunrise Tecan spectrophotometer. EC50 values were determined from the % inhibition versus concentration data using a sigmoidal non-linear regression analysis based on four parameters with Tecan Magellan software. When screening at a single concentration, the results were expressed as % inhibition at 15 μM.

T1 sequence (P27958 1027-1208): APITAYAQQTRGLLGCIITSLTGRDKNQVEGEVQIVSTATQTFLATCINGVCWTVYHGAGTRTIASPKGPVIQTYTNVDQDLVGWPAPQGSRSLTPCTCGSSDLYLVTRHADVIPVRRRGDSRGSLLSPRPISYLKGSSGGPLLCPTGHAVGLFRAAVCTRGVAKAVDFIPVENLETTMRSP

Row | SMILES | IC50 (HCV NS3-NS4A protease) | CC50 [1] | EC50 [2]
1 | COc1ccc2c(OCC[C@@H]3NC(=O)N(C)CCCC/C=C\[C@@H]4C[C@@]4(C(=O)NS(=O)(=O)C4(I)CC4)NC3=O)cc(-c3nc(C(C)C)cs3)nc2c1C | < 0.1 µM | > 1000 µM | 0.1 to 10 µM
2 | COc1ccc2c(OCC[C@@H]3NC(=O)N(C)CCCC/C=C\[C@@H]4C[C@@]4(C(=O)NS(=O)(=O)C4(C)CC4)NC3=O)cc(-n3ccc(C(C)C)n3)nc2c1Cl | < 0.1 µM | > 1000 µM | < 0.1 µM
3 | COc1ccc2c(OCC[C@@H]3NC(=O)N(C)CCCC/C=C\[C@@H]4C[C@@]4(C(=O)NS(=O)(=O)C4(C)CC4)NC3=O)cc(-c3cc(C(F)(F)F)nn3C)nc2c1C | < 0.1 µM | > 1000 µM | 0.1 to 10 µM
4 | COc1ccc2c(OCC[C@@H]3NC(=O)N(C)CCCC/C=C\[C@@H]4C[C@@]4(C(=O)NS(=O)(=O)C4(C)CC4)NC3=O)cc(-c3nc(C(C)C)cs3)nc2c1 | < 0.1 µM | 10 to 1000 µM | < 0.1 µM
5 | COc1ccc2c(OCC[C@@H]3NC(=O)N(C)CCCC/C=C\[C@@H]4C[C@@]4(C(=O)O)NC3=O)cc(-c3ccccc3)nc2c1 | 0.1 to 10 µM | > 1000 µM | 10 to 1000 µM
6 | COc1ccc2c(OCC[C@@H]3NC(=O)N(C)CCCC/C=C\[C@@H]4C[C@@]4(C(=O)OS(=O)(=O)C4(C)CC4)NC3=O)cc(-n3ccc(C(F)(F)F)n3)nc2c1C | < 0.1 µM | > 1000 µM | < 0.1 µM
7 | C#C[C@@H]1CCCN1S(=O)(=O)NC(=O)[C@@]12C[C@H]1/C=C\CCCCN(C)C(=O)N[C@@H](CCOc1cc(-c3nc(C(C)C)cs3)nc3c(Cl)c(OC)ccc13)C(=O)N2 | < 0.1 µM | > 1000 µM | 0.1 to 10 µM
8 | COc1ccc2c(OCC[C@@H]3NC(=O)N(C)CCCC/C=C\[C@@H]4C[C@@]4(C(=O)NS(=O)(=O)N4CCC[C@H]4C#N)NC3=O)cc(-c3nc(C(C)C)cs3)nc2c1Cl | 0.1 to 10 µM | > 1000 µM | 0.1 to 10 µM
9 | COc1ccc2c(OCC[C@@H]3NC(=O)N(C)CCCC/C=C\[C@@H]4C[C@@]4(C(=O)NS(=O)(=O)N4CCC(F)(F)C4)NC3=O)cc(-c3nc(C(C)C)cs3)nc2c1Cl | 0.1 to 10 µM | > 1000 µM | 0.1 to 10 µM
10 | COc1ccc2c(C(=O)OCC[C@@H]3NC(=O)N(C)CCCC/C=C\[C@@H]4C[C@@]4(C(=O)NS(=O)(=O)C4CC4)NC3=O)cc(-c3ccccc3)nc2c1 | 0.1 to 10 µM | > 1000 µM | > 1000 µM
11 | CCCn1ccc(-c2cc(OCC[C@@H]3NC(=O)N(C)CCCC/C=C\[C@@H]4C[C@@]4(C(=O)NS(=O)(=O)C4(C)CC4)NC3=O)c3ccc(OC)c(C)c3n2)n1 | < 0.1 µM | > 1000 µM | 0.1 to 10 µM
12 | COc1ccc2c(OCC[C@@H]3NC(=O)N(C)CCCC/C=C\[C@@H]4C[C@@]4(C(=O)NS(=O)(=O)C4(C)CC4)NC3=O)cc(-c3ccn(CCN4CCOCC4)n3)nc2c1C | < 0.1 µM | > 1000 µM | 0.1 to 10 µM
13 | COc1ccc2c(OCC[C@@H]3NC(=O)N(C)CCCC/C=C\[C@@H]4C[C@@]4(C(=O)NS(=O)(=O)C4(C)CC4)NC3=O)cc(-c3ccn(CC(C)C)n3)nc2c1C | < 0.1 µM | > 1000 µM | 0.1 to 10 µM
14 | COc1ccc2c(OCCC3NC(=O)N(C)CCCC/C=C\C4CC4(C(=O)NS(=O)(=O)C4(C#N)CC4)NC3=O)cc(-c3nc(C(C)C)cs3)nc2c1Cl (stereo not drawn) | < 0.1 µM | > 1000 µM | 0.1 to 10 µM
15 | COc1ccc2c(OCC[C@@H]3NC(=O)N(C)CCCC/C=C\[C@@H]4C[C@@]4(C(=O)NS(=O)(=O)C4CC4)NC3=O)cc(-c3nc(C(C)C)cs3)nc2c1Cl | < 0.1 µM | > 1000 µM | < 0.1 µM
16 | COc1ccc2c(OCC[C@@H]3NC(=O)N(C)CCCC/C=C\[C@@H]4C[C@@]4(C(=O)NS(=O)(=O)C4(C)CC4)NC3=O)cc(-c3ccn(CCC(C)C)n3)nc2c1C | < 0.1 µM | > 1000 µM | 0.1 to 10 µM
17 | COc1ccc2c(OCC[C@@H]3NC(=O)N(C)CCCC/C=C\[C@@H]4C[C@@]4(C(=O)NS(=O)(=O)C4(C)CC4)NC3=O)cc(-c3csc(NC(C)C)n3)nc2c1 | < 0.1 µM | > 1000 µM | 0.1 to 10 µM

Row | SMILES | IC50 (HCV NS3-NS4A protease) | CC50 [1] | EC50 [2]
18 | C#CC1(S(=O)(=O)NC(=O)C23CC2/C=C\CCCCN(C)C(=O)NC(CCOc2cc(-c4nc(C(C)C)cs4)nc4c(Cl)c(OC)ccc24)C(=O)N3)CC1 (stereo not drawn) | < 0.1 µM | > 1000 µM | < 0.1 µM
19 | COc1ccc2c(OCC[C@@H]3NC(=O)N(C)CCCC/C=C\[C@@H]4C[C@@]4(C(=O)NS(=O)(=O)C4(C)CC4)NC3=O)cc(-c3nc(C(C)C)cs3)nc2c1Cl | < 0.1 µM | > 1000 µM | < 0.1 µM
20 | COc1ccc2c(OCC[C@@H]3NC(=O)N(C)CCCC/C=C\[C@@H]4C[C@@]4(C(=O)NS(=O)(=O)C4(C)CC4)NC3=O)cc(-n3ccc(C(C)C)n3)nc2c1C | < 0.1 µM | > 1000 µM | < 0.1 µM
21 | COc1ccc2c(OCCC3NC(=O)N(C)CCCC/C=C\C4CC4(C(=O)NS(=O)(=O)C4(C)CC4)NC3=O)cc(-c3nc(C(C)C)cs3)nc2c1Br (stereo not drawn) | < 0.1 µM | > 1000 µM | < 0.1 µM
22 | COc1ccc2c(OCC[C@@H]3NC(=O)N(C)CCCC/C=C\[C@@H]4C[C@@]4(C(=O)NS(=O)(=O)C4CC4)NC3=O)cc(-c3ccccc3)nc2c1 | < 0.1 µM | > 1000 µM | 0.1 to 10 µM
23 | COc1ccc2c(OCC[C@@H]3NC(=O)N(C)CCCC/C=C\[C@@H]4C[C@@]4(C(=O)NS(=O)(=O)C4(C)CC4)NC3=O)cc(-n3ccc(C(F)(F)F)n3)nc2c1Cl | < 0.1 µM | > 1000 µM | < 0.1 µM
24 | COc1ccc2c(OCC[C@@H]3NC(=O)N(C)CCCC/C=C\[C@@H]4C[C@@]4(C(=O)NS(=O)(=O)C4(CC5CC5)CC4)NC3=O)cc(-c3nc(C(C)C)cs3)nc2c1Cl | < 0.1 µM | > 1000 µM | 0.1 to 10 µM
25 | COc1ccc2c(OCC[C@@H]3NC(=O)N(C)CCCC/C=C\[C@@H]4C[C@@]4(C(=O)NS(=O)(=O)C4CC4)NC3=O)cc(-c3nc(C(C)C)cs3)nc2c1F | < 0.1 µM | > 1000 µM | 10 to 1000 µM
26 | COc1ccc2c(OCC[C@@H]3NC(=O)N(C)CCCC/C=C\[C@@H]4C[C@@]4(C(=O)S(=O)(=O)C4(C)CC4)NC3=O)cc(-c3ccn(Cc4ccccc4)n3)nc2c1C | < 0.1 µM | > 1000 µM | 0.1 to 10 µM
27 | COc1ccc2c(OCCC3NC(=O)N(C)CCCC/C=C\C4CC4(C(=O)NS(=O)(=O)N4CCOCC4)NC3=O)cc(-c3nc(C(C)C)cs3)nc2c1Cl (stereo not drawn) | 0.1 to 10 µM | > 1000 µM | 0.1 to 10 µM
28 | CCC1(S(=O)(=O)NC(=O)[C@@]23C[C@H]2/C=C\CCCCN(C)C(=O)N[C@@H](CCOc2cc(-c4nc(C(C)C)cs4)nc4c(Cl)c(OC)ccc24)C(=O)N3)CC1 | < 0.1 µM | > 1000 µM | < 0.1 µM
29 | COc1ccc2c(OCCC3NC(=O)N(C)CCCC/C=C\C4CC4(C(=O)NS(=O)(=O)N(C)C)NC3=O)cc(-c3nc(C(C)C)cs3)nc2c1Cl (stereo not drawn) | < 0.1 µM | > 1000 µM | < 0.1 µM
30 | COc1ccc2c(OCCC3NC(=O)N(C)CCCC/C=C\C4CC4(C(=O)NS(=O)(=O)C4(C)CC4)NC3=O)cc(-c3nc(C(C)C)cs3)nc2c1F (stereo not drawn) | < 0.1 µM | > 1000 µM | 0.1 to 10 µM
31 | COc1ccc2c(OCC[C@@H]3NC(=O)N(C)CCCC/C=C\[C@@H]4C[C@@]4(C(=O)NS(=O)(=O)C4(C)CC4)NC3=O)cc(-c3nc(C(C)C)cs3)nc2c1C | < 0.1 µM | > 1000 µM | < 0.1 µM
32 | CCn1ccc(-c2cc(OCC[C@@H]3NC(=O)N(C)CCCC/C=C\[C@@H]4C[C@@]4(C(=O)OS(=O)(=O)C4(C)CC4)NC3=O)c3ccc(OC)c(C)c3n2)n1 | < 0.1 µM | > 1000 µM | 0.1 to 10 µM
33 | CC(=O)OCC[C@@H]1NC(=O)N(C)CCCC/C=C\[C@@H]2C[C@@]2(C(=O)NS(=O)(=O)C2CC2)NC1=O | 0.1 to 10 µM | > 1000 µM | > 1000 µM
34 | COc1ccc2c(OCCC3NC(=O)N(C)CCCC/C=C\C4CC4(C(=O)NS(=O)(=O)C4(F)CC4)NC3=O)cc(-c3nc(C(C)C)cs3)nc2c1Cl (stereo not drawn) | < 0.1 µM | > 1000 µM | 0.1 to 10 µM
